The results in this text go back to ChEMBL document CHEMBL1134900, “Substituted 3-amino biaryl propionic acids as potent VLA-4 antagonists” (Bioorg Med Chem Lett, 2002).

Data set [1] can be described thus: Compound was tested for its plasma half life in Sprague Dawley rats. As to conditions: rat.
Data set [2] can be described thus: Compound was tested for its plasma volume distribution in Sprague Dawley rats. The following applies: rat.
Data set [3] can be described thus: Compound was tested for its plasma clearance rate in Sprague Dawley rats. As to conditions: rat.
Data set [4] can be described thus: in vivo. As to conditions: rhesus monkey, plasma, iv, 0.75 mg/kg.
Description: Compound was tested for its plasma clearance rate in rhesus monkey at a dose of 0.75 mg/kg iv/ 1.5 mg/kg po

Broadly, the half-life is how long it takes for the measured level to halve. Low readings indicate rapid decline, high ones slow decline. By Vd is commonly meant the apparent volume that relates the amount in the body to the concentration in plasma or blood. The clearance is a measure of how efficiently the substance is removed, as volume per time. Lower therefore signals a low capacity for elimination. The molecule `COc1cc(F)cc(-c2ccc([C@@H](CC(=O)O)NC(=O)[C@]3(C)CCCN3S(=O)(=O)c3cc(Cl)cc(Cl)c3)cc2)c1` had a half-life in data set [1] of 0.9 h. The Vd in data set [2] was determined as 0.12 L/kg. In data set [3], this molecule gave a clearance of 2.5 mL/min/kg.

As for `COc1ccc(F)cc1-c1ccc([C@@H](CC(=O)O)NC(=O)[C@]2(C)CCCN2S(=O)(=O)c2cc(Cl)cc(Cl)c2)cc1`, the half-life in data set [1] was 1.2 h. In data set [2], this molecule yielded a Vd of 0.08 L/kg. The same molecule yielded a clearance in data set [3] of 2.3 mL/min/kg.

`COc1cccc(F)c1-c1ccc([C@@H](CC(=O)O)NC(=O)[C@]2(C)CCCN2S(=O)(=O)c2cc(Cl)cc(Cl)c2)cc1` had a half-life in data set [1] of 1.3 h. The Vd in data set [2] turned out to be 0.13 L/kg. The molecule also yielded a clearance in data set [3] of 2.3 mL/min/kg.

On to `COc1cccc(OC(F)(F)F)c1-c1ccc([C@@H](CC(=O)O)NC(=O)[C@]2(C)CCCN2S(=O)(=O)c2cc(Cl)cc(Cl)c2)cc1`, for which the half-life in data set [1] is 1.6 h. The molecule also yielded a Vd in data set [2] of 1.1 L/kg. In data set [3], this molecule had a clearance of 24.9 mL/min/kg.

As to `COc1ccccc1-c1ccc([C@@H](CC(=O)O)NC(=O)[C@@H]2CCN2S(=O)(=O)c2cc(Cl)cc(Cl)c2)cc1`, in data set [1], the half-life was 2.4 h. The molecule also yielded a Vd in data set [2] of 0.12 L/kg. Further, the clearance in data set [4] was 22.1 mL/min/kg; in data set [3], 5 mL/min/kg.

`COc1cc(F)ccc1-c1ccc([C@@H](CC(=O)O)NC(=O)[C@@H]2CCCN2S(=O)(=O)c2cc(Cl)cc(Cl)c2)cc1` registered a clearance in data set [3] of 14.6 mL/min/kg.

`COc1cccc(F)c1-c1ccc([C@@H](CC(=O)O)NC(=O)[C@@H]2CCCN2S(=O)(=O)c2cc(Cl)cc(Cl)c2)cc1` gave a half-life in data set [1] of 0.7 h. The molecule further registered a Vd in data set [2] of 0.19 L/kg. Also, in data set [3], the clearance came to 16.3 mL/min/kg.

In turn, `COc1ccccc1-c1ccc([C@@H](CC(=O)O)NC(=O)[C@H]2CCCN2S(=O)(=O)c2cc(Cl)cc(Cl)c2)cc1` had a half-life in data set [1] of 1.3 h. The same molecule returned a Vd in data set [2] of 0.08 L/kg. The molecule further returned a clearance in data set [3] of 1.1 mL/min/kg.

In turn, `COc1cccc(OC)c1-c1ccc([C@@H](CC(=O)O)NC(=O)[C@@H]2CCCN2S(=O)(=O)c2cc(Cl)cc(Cl)c2)cc1` gave a half-life in data set [1] of 1.8 h. Further, the Vd in data set [2] was determined as 1.4 L/kg. In data set [3], this molecule yielded a clearance of 51.6 mL/min/kg.

Molecule `COc1ccc(F)cc1-c1ccc([C@@H](CC(=O)O)NC(=O)[C@@H]2CCCN2S(=O)(=O)c2cc(Cl)cc(Cl)c2)cc1` showed a half-life in data set [1] of 3 h. The same molecule came in with a Vd in data set [2] of 0.58 L/kg. This molecule displayed a clearance in data set [3] of 13.1 mL/min/kg.

For `COc1ccc([C@@H](CC(=O)O)NC(=O)[C@@H]2CCN2S(=O)(=O)c2cc(Cl)cc(Cl)c2)cc1`, the half-life in data set [1] is 1.1 h. Moreover, in data set [2], the Vd worked out at 1.5 L/kg. In data set [3], this molecule returned a clearance of 22.1 mL/min/kg.
